Data on 35 compounds can be found in ChEMBL document CHEMBL6182845, “Synthesis, screening and validation of cysteine-reactive fragments as chikungunya virus protease inhibitors” (Bioorg Med Chem Lett, 2025).

The source made the active and inactive calls. No cut-off for these calls is given here.

Experiment [1] concerns the target Polyprotein P1234 (Chikungunya virus (strain S27-African prototype) (CHIKV)) (UniProt Q8JUX6). As to the kind of experiment: Inhibition of CHIKV nsP2 protease at 1 mM by FRET assay relative to control.
Experiment [2] has the same target. As to the kind of experiment: Reversible binding affinity to CHIKV nsP2 protease at 10 uM preincubated with compound followed by 100 fold dilution and subsequent addition of substrate by jump-dilution assay.
Experiment [3] shares this target. As to the kind of experiment: Binding affinity to CHIKV nsP2 protease assessed as covalent modification by mass spectrometry.
The target is the same in experiment [4]. As to the kind of experiment: Irreversible binding affinity to CHIKV nsP2 protease at 10 uM preincubated with compound followed by 100 fold dilution and subsequent addition of substrate by jump-dilution assay.
The target of a further experiment is Polyprotein P1234 (Chikungunya virus (strain S27-African prototype) (CHIKV), UniProt Q8JUX6). As to the kind of experiment: Inhibition of CHIKV nsP2 protease by FRET assay.
The target of experiment [5] is Polyprotein P1234 (Sindbis virus) (UniProt P03317). As to the kind of experiment: Inhibition of SINV nsP2pro at 1 mM by FRET analysis.
For experiment [6], the target named is Replicase polyprotein 1ab (Severe acute respiratory syndrome coronavirus 2) (UniProt P0DTD1). As to the kind of experiment: Inhibition of SARS-CoV-2 PLpro at 1 mM by FRET analysis.

Polyprotein P1234 (Chikungunya virus (strain S27-African prototype) (CHIKV)), sequence (Q8JUX6 whole entry): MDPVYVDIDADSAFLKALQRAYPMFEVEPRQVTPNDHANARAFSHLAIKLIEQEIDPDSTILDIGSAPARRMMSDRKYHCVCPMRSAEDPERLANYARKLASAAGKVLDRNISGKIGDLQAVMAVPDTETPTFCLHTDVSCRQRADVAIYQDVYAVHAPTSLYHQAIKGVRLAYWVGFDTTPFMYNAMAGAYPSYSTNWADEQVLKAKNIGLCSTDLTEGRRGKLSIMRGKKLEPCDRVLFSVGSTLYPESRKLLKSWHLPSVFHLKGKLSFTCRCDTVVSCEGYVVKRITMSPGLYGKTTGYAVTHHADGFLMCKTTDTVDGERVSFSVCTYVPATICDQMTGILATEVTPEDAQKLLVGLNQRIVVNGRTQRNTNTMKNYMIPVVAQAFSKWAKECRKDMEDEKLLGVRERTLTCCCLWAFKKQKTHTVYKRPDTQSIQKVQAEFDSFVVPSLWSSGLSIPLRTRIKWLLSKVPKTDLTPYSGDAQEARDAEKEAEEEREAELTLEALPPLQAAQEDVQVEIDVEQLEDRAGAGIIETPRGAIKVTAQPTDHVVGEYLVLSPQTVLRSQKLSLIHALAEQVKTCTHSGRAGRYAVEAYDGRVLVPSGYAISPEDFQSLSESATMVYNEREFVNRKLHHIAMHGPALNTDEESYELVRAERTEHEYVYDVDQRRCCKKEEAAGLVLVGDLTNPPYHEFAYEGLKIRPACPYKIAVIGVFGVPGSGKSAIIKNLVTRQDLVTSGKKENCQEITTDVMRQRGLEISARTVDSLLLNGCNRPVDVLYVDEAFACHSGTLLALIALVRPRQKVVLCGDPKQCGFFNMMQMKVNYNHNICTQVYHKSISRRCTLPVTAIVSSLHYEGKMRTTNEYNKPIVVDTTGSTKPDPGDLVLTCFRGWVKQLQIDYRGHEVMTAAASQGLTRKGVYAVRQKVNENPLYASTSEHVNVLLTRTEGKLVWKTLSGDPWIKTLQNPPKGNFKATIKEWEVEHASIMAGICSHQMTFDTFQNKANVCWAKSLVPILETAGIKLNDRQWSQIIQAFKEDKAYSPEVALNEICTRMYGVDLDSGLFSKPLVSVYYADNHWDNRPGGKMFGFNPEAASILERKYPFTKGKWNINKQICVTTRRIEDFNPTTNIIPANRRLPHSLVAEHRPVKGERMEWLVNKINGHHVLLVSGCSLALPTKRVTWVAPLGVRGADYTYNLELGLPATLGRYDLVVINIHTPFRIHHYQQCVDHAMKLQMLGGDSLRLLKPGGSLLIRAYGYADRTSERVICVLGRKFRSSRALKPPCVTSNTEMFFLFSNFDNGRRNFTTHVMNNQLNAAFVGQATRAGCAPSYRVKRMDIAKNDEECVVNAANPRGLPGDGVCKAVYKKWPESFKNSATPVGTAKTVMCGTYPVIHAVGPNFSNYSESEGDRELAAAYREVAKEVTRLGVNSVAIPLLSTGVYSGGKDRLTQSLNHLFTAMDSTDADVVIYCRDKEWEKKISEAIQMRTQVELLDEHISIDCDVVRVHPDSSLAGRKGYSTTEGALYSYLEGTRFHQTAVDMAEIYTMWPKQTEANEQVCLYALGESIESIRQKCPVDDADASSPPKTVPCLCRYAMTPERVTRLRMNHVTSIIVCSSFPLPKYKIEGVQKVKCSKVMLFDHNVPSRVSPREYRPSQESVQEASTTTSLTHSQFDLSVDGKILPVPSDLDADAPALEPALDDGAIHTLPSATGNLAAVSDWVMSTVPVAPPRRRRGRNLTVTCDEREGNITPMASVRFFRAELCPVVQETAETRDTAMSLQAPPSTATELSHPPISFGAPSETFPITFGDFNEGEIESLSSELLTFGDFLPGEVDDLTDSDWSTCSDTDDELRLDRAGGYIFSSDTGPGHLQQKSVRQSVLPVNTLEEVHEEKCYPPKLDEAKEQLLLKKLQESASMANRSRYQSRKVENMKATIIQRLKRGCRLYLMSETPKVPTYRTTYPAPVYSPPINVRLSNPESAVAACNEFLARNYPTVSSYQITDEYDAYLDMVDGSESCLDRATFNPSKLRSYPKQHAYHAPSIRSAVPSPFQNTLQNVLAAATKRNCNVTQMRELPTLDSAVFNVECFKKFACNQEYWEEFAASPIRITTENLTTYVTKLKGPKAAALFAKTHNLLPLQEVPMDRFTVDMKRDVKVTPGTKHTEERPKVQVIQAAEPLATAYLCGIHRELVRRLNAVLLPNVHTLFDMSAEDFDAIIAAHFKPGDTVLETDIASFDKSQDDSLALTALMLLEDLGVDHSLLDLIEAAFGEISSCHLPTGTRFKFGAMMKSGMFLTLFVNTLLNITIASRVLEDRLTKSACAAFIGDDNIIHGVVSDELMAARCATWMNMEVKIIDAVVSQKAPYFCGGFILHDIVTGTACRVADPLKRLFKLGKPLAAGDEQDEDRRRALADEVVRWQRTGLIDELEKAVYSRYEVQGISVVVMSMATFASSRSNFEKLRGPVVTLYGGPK
Polyprotein P1234 (Sindbis virus), sequence (P03317 whole entry): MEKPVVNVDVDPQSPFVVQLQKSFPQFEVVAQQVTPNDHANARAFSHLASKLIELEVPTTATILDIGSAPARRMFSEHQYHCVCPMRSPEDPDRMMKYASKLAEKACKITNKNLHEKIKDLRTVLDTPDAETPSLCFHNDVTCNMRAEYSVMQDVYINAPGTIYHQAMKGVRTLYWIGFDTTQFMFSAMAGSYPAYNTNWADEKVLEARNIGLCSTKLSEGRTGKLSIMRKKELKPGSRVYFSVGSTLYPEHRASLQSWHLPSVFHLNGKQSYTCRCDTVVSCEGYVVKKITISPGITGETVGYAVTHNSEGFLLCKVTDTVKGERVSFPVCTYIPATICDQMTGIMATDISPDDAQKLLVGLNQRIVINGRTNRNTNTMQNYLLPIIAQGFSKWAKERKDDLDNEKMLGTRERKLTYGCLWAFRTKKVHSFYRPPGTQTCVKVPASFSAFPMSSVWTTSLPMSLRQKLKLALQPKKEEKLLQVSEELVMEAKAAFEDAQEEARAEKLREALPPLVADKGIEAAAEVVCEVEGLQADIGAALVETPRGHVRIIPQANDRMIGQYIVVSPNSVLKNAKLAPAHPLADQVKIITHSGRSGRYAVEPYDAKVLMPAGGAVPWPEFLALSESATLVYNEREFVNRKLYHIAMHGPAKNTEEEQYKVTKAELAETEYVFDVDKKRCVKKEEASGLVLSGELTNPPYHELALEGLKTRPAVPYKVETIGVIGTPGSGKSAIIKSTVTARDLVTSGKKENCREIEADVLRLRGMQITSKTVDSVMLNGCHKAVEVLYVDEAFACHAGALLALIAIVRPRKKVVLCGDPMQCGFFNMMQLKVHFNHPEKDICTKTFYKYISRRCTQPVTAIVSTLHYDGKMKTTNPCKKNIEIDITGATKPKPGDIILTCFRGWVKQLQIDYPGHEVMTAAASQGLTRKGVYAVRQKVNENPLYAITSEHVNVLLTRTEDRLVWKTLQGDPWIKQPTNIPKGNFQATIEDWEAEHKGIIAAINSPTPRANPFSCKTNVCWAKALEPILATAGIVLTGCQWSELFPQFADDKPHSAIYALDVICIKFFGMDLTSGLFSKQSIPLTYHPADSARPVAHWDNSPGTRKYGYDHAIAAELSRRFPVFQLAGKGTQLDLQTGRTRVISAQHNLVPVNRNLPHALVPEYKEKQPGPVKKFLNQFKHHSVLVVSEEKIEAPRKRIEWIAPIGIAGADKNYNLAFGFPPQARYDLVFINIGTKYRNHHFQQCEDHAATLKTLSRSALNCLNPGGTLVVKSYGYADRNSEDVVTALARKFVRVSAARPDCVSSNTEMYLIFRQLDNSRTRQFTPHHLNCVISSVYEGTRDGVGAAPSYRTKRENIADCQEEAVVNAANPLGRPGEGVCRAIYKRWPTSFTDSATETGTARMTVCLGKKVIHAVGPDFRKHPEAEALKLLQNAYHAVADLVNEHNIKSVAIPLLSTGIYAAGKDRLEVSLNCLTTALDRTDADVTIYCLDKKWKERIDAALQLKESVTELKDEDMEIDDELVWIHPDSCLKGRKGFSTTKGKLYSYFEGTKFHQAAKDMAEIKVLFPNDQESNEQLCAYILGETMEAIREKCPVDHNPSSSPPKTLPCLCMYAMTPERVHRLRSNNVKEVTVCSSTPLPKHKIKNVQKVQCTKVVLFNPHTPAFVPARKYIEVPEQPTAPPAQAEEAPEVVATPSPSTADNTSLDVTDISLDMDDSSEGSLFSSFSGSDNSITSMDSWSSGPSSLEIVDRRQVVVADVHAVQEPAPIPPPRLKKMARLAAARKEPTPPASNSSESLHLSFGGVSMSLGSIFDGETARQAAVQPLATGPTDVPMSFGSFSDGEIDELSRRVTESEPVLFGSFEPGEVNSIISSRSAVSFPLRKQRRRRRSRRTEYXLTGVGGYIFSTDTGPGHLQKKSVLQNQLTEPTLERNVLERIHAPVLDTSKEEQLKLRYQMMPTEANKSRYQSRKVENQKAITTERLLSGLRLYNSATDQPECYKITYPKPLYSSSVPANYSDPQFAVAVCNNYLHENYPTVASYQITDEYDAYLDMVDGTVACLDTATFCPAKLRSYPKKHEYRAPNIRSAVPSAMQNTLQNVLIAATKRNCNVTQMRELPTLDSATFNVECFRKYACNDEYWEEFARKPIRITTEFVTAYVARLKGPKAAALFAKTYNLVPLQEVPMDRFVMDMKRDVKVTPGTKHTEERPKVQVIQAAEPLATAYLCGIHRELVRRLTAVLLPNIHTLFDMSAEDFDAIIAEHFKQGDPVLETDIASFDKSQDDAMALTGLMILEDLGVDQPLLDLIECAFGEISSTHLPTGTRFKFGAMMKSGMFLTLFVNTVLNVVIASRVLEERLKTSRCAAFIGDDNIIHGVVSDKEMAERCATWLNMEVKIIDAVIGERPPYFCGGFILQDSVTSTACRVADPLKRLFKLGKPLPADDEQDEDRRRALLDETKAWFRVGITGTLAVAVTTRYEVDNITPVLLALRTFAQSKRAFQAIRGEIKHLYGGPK

The term inhibition denotes the share of the control response that was lost under treatment. Turning to `C=CC(=O)N[C@@H](C)c1ccccc1`, the inhibition in experiment [1] is < 40%.

As for `C=CC(=O)N(C(C)C)C1CCCCC1`, in experiment [1], the inhibition is < 40%.

As for `C=CC(=O)NCCc1c[nH]c2ccccc12`, the inhibition in experiment [1] was > 40%.

`C=CC(=O)NCCc1ccccc1`: the inhibition in experiment [1] was < 40%.

Turning to `C=CC(=O)N[C@H]1CCc2ccccc21`, in experiment [1], the inhibition was < 40%.

Take `C=CC(=O)NCc1ccc(C(F)(F)F)cc1`: the inhibition in experiment [1] was < 40%.

Turning to `C=CC(=O)N1CCN(C(=O)OC(C)(C)C)CC1`, the inhibition in experiment [1] is < 40%.

As for `C=CC(=O)NCc1ccc2c(c1)OCO2`, in experiment [1], the inhibition is < 40%.

Take `C=CC(=O)Nc1ccc(OC)c(OC)c1`: the inhibition in experiment [1] was < 40%.

Regarding `C=CC(=O)NCc1ccc(Cl)cc1F`, in experiment [1], the inhibition is < 40%.

Take `C=CC(=O)NCCc1ccc(O)cc1`: the inhibition in experiment [1] was < 40%.

Take `CCC(=O)NCc1cccc(C(F)(F)F)c1`: in experiment [1], the inhibition is < 40%. For the same compound, in experiment [2], the result was Active.

As a reminder, the IC50 is the concentration that inhibits the measured activity by half. High values mean lower potency, low ones higher potency. As to `C=CC(=O)Nc1ccc(Br)cc1`, the Activity in experiment [3] was 17%. Further, the result in experiment [4] was Active. The compound also had an IC50 on Polyprotein P1234 of 1.3 mM. The figures for the inhibition result in experiment [5] and in experiment [1] were “Active; Inhibition Is Weaker Than Chikv Nsp2Pro” and > 40%, respectively. Besides, the inhibition result in experiment [6] was “inactive”.

Turning to `C=CC(=O)NCc1ccc(F)cc1`, in experiment [1], the inhibition was < 40%.

In the case of `C=CC(=O)N[C@H](C)c1ccccc1`, the inhibition in experiment [1] was < 40%.

For `C=CC(=O)Nc1ccc(OC)c(O)c1`, the inhibition in experiment [1] was > 40%.

As to `C=CC(=O)NCc1ccc(OC)cc1`, the inhibition in experiment [1] is < 40%.

For `C=CC(=O)Nc1ccc(OC)cc1[N+](=O)[O-]`, in experiment [1], the inhibition is > 40%.

As for `C=CC(=O)Nc1cccc(C)c1C`, in experiment [1], the inhibition is < 40%.

For the compound `C=CC(=O)NCc1ccccc1Cl`, the inhibition result in experiment [5] is “Active; Inhibition Is Weaker Than Chikv Nsp2Pro”. Besides, in experiment [6], the inhibition result was “inactive”.

With `C=CC(=O)NCc1ccc(C(C)(C)C)cc1`, the inhibition in experiment [1] is < 40%.

In the case of `C=CC(=O)Nc1c(CC(C)C)cccc1CC(C)C`, the inhibition in experiment [1] was < 40%.

As for `C=CC(=O)Nc1ccc(OC)c(OC(=O)C=C)c1`, in experiment [1], the inhibition is > 40%.

For `CCC(=O)Nc1ccc(Br)cc1`, in experiment [1], the inhibition is < 40%. Besides, the result in experiment [2] was Active.

For the compound `C=CC(=O)NCc1ccc(Cl)cc1`, the inhibition in experiment [1] is < 40%.

As to `C=CC(=O)NCc1ccc(Br)cc1F`, in experiment [1], the inhibition was < 40%.

For `C=CC(=O)Nc1ccc(I)cc1`, in experiment [1], the inhibition was > 40%.

Turning to `C=CC(=O)N[C@@H]1CCCC[C@H]1NC(=O)C=C`, the inhibition in experiment [1] is < 40%.

For `C=CC(=O)Nc1ccc([N+](=O)[O-])cc1`, the inhibition in experiment [1] was found to be 100%.

As to `C=CC(=O)NCc1cccc(C(F)(F)F)c1`, in experiment [4], the outcome was Active. Moreover, the IC50 at Polyprotein P1234 was 1.3 mM. Also, the inhibition in experiment [1] was > 40%.

Consider `C=CC(=O)NCc1ccccc1`, for which the inhibition in experiment [1] is < 40%.

On to `C=CC(=O)NC1CCCCC1`, for which the inhibition in experiment [1] is < 40%.

As to `C=CC(=O)Nc1ccc(OC)cc1`, the inhibition in experiment [1] was < 40%.

Regarding `C=CC(=O)N(C)Cc1ccccc1`, the inhibition in experiment [1] is < 40%.

Take `C=CC(=O)Nc1ccccc1`: the inhibition in experiment [1] was < 40%.
